Consider four compounds from publication PMC6264295, “Studies on Log Po/w of Quinoxaline di-N-Oxides: A Comparison of RP-HPLC Experimental and Predictive Approaches” (Molecules, 2011).

The structures appear in SMILES notation.

The chromatographic logP is lipophilicity estimated from chromatographic retention. Read a high chromatographic logP as higher lipophilicity.

Data set [1] in a line: RP-HPLC determination of capacity factors and log Po/w (Supelcosil LC-ABZ, MOPS buffer pH 7.4/methanol). To be noted: for Capacity factors log k’40: 40% methanol; for Capacity factors log k’40 / Capacity factors log k’50 / Capacity factors log k’60 / Capacity factors log k’70: MOPS buffer pH 7.4; for Capacity factors log k’50: 50% methanol; for Capacity factors log k’60: 60% methanol; for Capacity factors log k’70: 70% methanol; for Capacity factors log k’0: extrapolated to 0% methanol; for chromatographic logP: pH 7.4, RP-HPLC log Po/w. On the procedure:
The RP-HPLC methods of Minick and Lombardo [53] were considered for estimating the n-octanol/water partition coefficients (log Po/w) of QdO. The inorganic salts and the reference compounds were, at least, of analytical grade (Sigma Aldrich and Fluka) and used without further purification. HPLC-grade methanol, n-octanol (Sigma-Aldrich) and bi-distilled water were used to prepare the mobile phase.
The other chromatographic conditions were: flow 1.0 mL/min^−1; isocratic elution, UV-visible detector set at the wavelength with maximum absorbance (260 and 210 nm). The test solutions were 0.3 mM in the desired compound. All the experiments were performed at 25 ± 2 °C at least twice.
The capacity factors were calculated according to Equation (2): […]
In order to judge if the experimentally measured log k’0 can be used to predict the log Po/w value, a calibration curve was created with the capacity factors of the reference compounds and a linear regression equation between the log Po/w and log k’0 was determined.
The robustness of the model and its predictivity were evaluated by the leave-one-out (LOO) cross-validation procedure. According to this procedure, the log Po/w value of each compound in the reference data set is predicted by the equations derived from all the other compounds except the predicted one. At the end of this procedure two values are available for each reference compound, the reference shake-flask log Po/w value (yi) and the predicted one (ŷi). […] The regression coefficient (R^2LOO) is defined by Equation (5): [drawing 8] (5) where [drawing 9] is the mean of the reference shake-flask log Po/w value and n is the number of reference compounds. A high value of R^2LOO indicates a good predictive ability of the model. The root mean squared error in prediction (RMSELOO) is calculated with Equation (6): [drawing 10] (6)

For data set [2] the following is noted: reference compounds; reference values; ref OECD Guidelines [39]; cited from earlier work.
Details of data set [3]: method as in earlier work. Particulars: reduction peak potential; cited from earlier work.

As for `CCC(C)=O` [Compound 1, 2-Butanone, reference compound], in data set [1] (reference compounds, capacity factor extrapolated to 0% methanol, pH 7.4), the “log k’0” value is −0.06. In addition, in data set [1] (reference compounds, from log k’0 by Equation (1)), the “RP-HPLC log Po/w” value is given as 0.21. In data set [1] (reference compounds, leave-one-out cross-validation), the “LOO-predicted RP-HPLC log Po/w” value is reported as 0.15. Also, the “log Po/w” value in data set [2] is on record as 0.3.

As to `Cc1c(C(=O)NCc2ccc(Br)cc2)[n+]([O-])c2ccccc2[n+]1[O-]` [Compound 18], in data set [1], the “Capacity factors log k’40” value was 0.85, the “Capacity factors log k’50” value is listed as 0.48, the “Capacity factors log k’60” value is listed as 0.11 and the “Capacity factors log k’70” value is on record as −0.24. For the same compound, the chromatographic logP in data set [1] is 2.57. For the same compound, the “Capacity factors log k’0” value in data set [1] (pH 7.4) is 2.30. Moreover, in data set [3], the “Epc,1” value is −1.540.

For the compound `Cc1ccc2c(c1)[n+]([O-])c(C(=O)NCCc1ccccc1)c(C)[n+]2[O-]` [Compound 15], in data set [1], the “Capacity factors log k’40” value came to 0.47, the “Capacity factors log k’50” value is 0.21, the “Capacity factors log k’60” value is −0.13 and the “Capacity factors log k’70” value was −0.45. This compound also came in with a chromatographic logP in data set [1] of 2. Moreover, the “Capacity factors log k’0” value in data set [1] (pH 7.4) is on record as 1.73. In data set [3], the “Epc,1” value was −1.649.

`Cc1ccc2c(c1)[n+]([O-])c(C(=O)NCc1ccc(Br)cc1)c(C)[n+]2[O-]` [Compound 19]: in data set [1], the “Capacity factors log k’40” value came to 0.94, the “Capacity factors log k’50” value is given as 0.60, the “Capacity factors log k’60” value was 0.21 and the “Capacity factors log k’70” value is listed as −0.16. Also, the chromatographic logP in data set [1] was 2.69. Moreover, the “Capacity factors log k’0” value in data set [1] (pH 7.4) is recorded as 2.43. The “Epc,1” value in data set [3] is on record as −1.580.
